## CO[C@H]1/C=C/O[C@@]2(C)Oc3c(C)c(O)c4c(O)c(c(/C=N/N5CCN(C)CC5)c(O)c4c3C2=O)NC(=O)/C(C)=C\C=C\[C@H](C)[C@H](O)[C@@H](C)[C@@H](O)[C@@H](C)[C@H](OC(C)=O)[C@@H]1C
In ethanol, 298.2 K
  solubility (mole fraction): 0.00011
In ethanol, 303.2 K
  solubility (mole fraction): 0.00016
In ethanol, 308.2 K
  solubility (mole fraction): 0.00023
In ethanol, 313.2 K
  solubility (mole fraction): 0.00036
In ethanol, 318.2 K
  solubility (mole fraction): 0.00053
In ethyl acetate, 298.2 K
  solubility (mole fraction): 0.00054
In ethyl acetate, 303.2 K
  solubility (mole fraction): 0.00074
In ethyl acetate, 308.2 K
  solubility (mole fraction): 0.00088
In ethyl acetate, 313.2 K
  solubility (mole fraction): 0.0091
In ethyl acetate, 318.2 K
  solubility (mole fraction): 0.013
In eugenol, 298.2 K
  solubility (mole fraction): 0.00028
In eugenol, 303.2 K
  solubility (mole fraction): 0.00031
In eugenol, 308.2 K
  solubility (mole fraction): 0.00039
In eugenol, 313.2 K
  solubility (mole fraction): 0.00043
In eugenol, 318.2 K
  solubility (mole fraction): 0.00059
In isopropanol, 298.2 K
  solubility (mole fraction): 0.00073
In isopropanol, 303.2 K
  solubility (mole fraction): 0.00089
In isopropanol, 313.2 K
  solubility (mole fraction): 0.0016
In isopropanol, 318.2 K
  solubility (mole fraction): 0.0017
In isopropyl myristate, 298.2 K
  solubility (mole fraction): 0.0031
In isopropyl myristate, 303.2 K
  solubility (mole fraction): 0.0038
In isopropyl myristate, 308.2 K
  solubility (mole fraction): 0.0043
In isopropyl myristate, 313.2 K
  solubility (mole fraction): 0.0047
In limonene, 298.2 K
  solubility (mole fraction): 0.0023
In limonene, 303.2 K
  solubility (mole fraction): 0.0036
In limonene, 308.2 K
  solubility (mole fraction): 0.0052
In limonene, 313.2 K
  solubility (mole fraction): 0.0085
In sec-butanol, 298.2 K
  solubility (mole fraction): 0.00048
In sec-butanol, 303.2 K
  solubility (mole fraction): 0.00051
In sec-butanol, 308.2 K
  solubility (mole fraction): 0.00059
In sec-butanol, 313.2 K
  solubility (mole fraction): 0.00076
In span 80, 298.2 K
  solubility (mole fraction): 0.00058
In span 80, 303.2 K
  solubility (mole fraction): 0.00064
In span 80, 308.2 K
  solubility (mole fraction): 0.00079
In span 80, 313.2 K
  solubility (mole fraction): 0.00085
In span 80, 318.2 K
  solubility (mole fraction): 0.00099
In transcutol, 298.2 K
  solubility (mole fraction): 0.00097
In transcutol, 303.2 K
  solubility (mole fraction): 0.0013
In transcutol, 308.2 K
  solubility (mole fraction): 0.0025
In transcutol, 313.2 K
  solubility (mole fraction): 0.0049
In transcutol, 318.2 K
  solubility (mole fraction): 0.018
In triacetin, 298.2 K
  solubility (mole fraction): 0.00049
In triacetin, 303.2 K
  solubility (mole fraction): 0.00052
In triacetin, 308.2 K
  solubility (mole fraction): 0.00072
In triacetin, 313.2 K
  solubility (mole fraction): 0.00073
In triacetin, 318.2 K
  solubility (mole fraction): 0.00088

— BigSolDB 2.1
